Source: patent US11690377B2, “Herbicidal composition and method of use thereof” (Belchim Crop Protection NV, priority 2017, dated 2023)

Key:
Assay type in all cases: in vivo
[1] = test system: IPOHE - Ivyleaf Morningglory (Ipomoea headrace); experiment: Field trial, pre-emergence weed control in corn, IPOHE; details: mesotrione 3.85, pyridate 6.84, combination 3.85 + 6.84 (rate unit not given)
Procedure: (§1) Field trials were conducted in Tennessee and Illinois (USA). The crop and weed species had been seeded and/or drill sown. In the case of post-emergence evaluation, seeded and/or drill sown plants were grown to a certain growth stage before application of the active ingredients (alone or as a mixture). In the case of pre-emergence evaluation, the application of the active ingredients was carried out after the plants were seeded and/or drilled sown. The trial was in the form of a randomized complete block. The percentage of weed control was assessed in several different instances after treatment until a maximum of 42 days after treatment, by comparison with untreated control plots by visual scoring. The herbicidal action was assessed qualitatively and quantitatively. To quantify the synergic effect resulting from the combination of mesotrione and pyridate, the inventors used the methodology described by Colby, in which a synergistic effect exists when the activity of a composition comprising both active compounds is greater than the sum of the activities of the two active compounds applied individually. The expected activity for the combination of mesotrione and pyridate can be calculated by the following so-called “Colby equation” (see S. R. Colby, “Calculating Synergistic and Antagonistic Responses of Herbicide Combinations”, Weeds 1967, 15, 20-22). Pa+b=(Pa+Pb)−(Pa*Pb/100) Wherein • Pa+b is the expected percent inhibition of weed growth by the combination of mesotrione and pyridate; • Pa is the percent inhibition of weed growth induced by mesotrione; • Pb is the percent inhibition of weed growth induced by pyridate. If the actual percent inhibition of weed growth induced by the combination of mesotrione and pyridate is greater than the expected percent inhibition (Pa+b) calculated from the Colby equation, then the activity of the combination is synergistic. The below Tables represent the herbicidal performance of the composition according to the invention, and also the herbicidal performance of the active ingredients alone, in controlling specific weeds. The expected percent inhibition of weed growth (derived from the Colby's equation) and the actual (observed) percent inhibition of weed growth is also presented in order to conclude on the synergistic effect of the combination according to the invention. Pre-Emergence Herbicidal Performance of the Composition According to the Invention Against Broadleaf Weed in Corn.

[2] = test system: AMATA - Common Waterhemp (Amaranthus rudis); experiment: Field trial, post-emergence weed control in corn, AMATA
Procedure: (§2) Field trials were conducted in Tennessee and Illinois (USA). The crop and weed species had been seeded and/or drill sown. In the case of post-emergence evaluation, seeded and/or drill sown plants were grown to a certain growth stage before application of the active ingredients (alone or as a mixture). In the case of pre-emergence evaluation, the application of the active ingredients was carried out after the plants were seeded and/or drilled sown. The trial was in the form of a randomized complete block. The percentage of weed control was assessed in several different instances after treatment until a maximum of 42 days after treatment, by comparison with untreated control plots by visual scoring. The herbicidal action was assessed qualitatively and quantitatively. To quantify the synergic effect resulting from the combination of mesotrione and pyridate, the inventors used the methodology described by Colby, in which a synergistic effect exists when the activity of a composition comprising both active compounds is greater than the sum of the activities of the two active compounds applied individually. The expected activity for the combination of mesotrione and pyridate can be calculated by the following so-called “Colby equation” (see S. R. Colby, “Calculating Synergistic and Antagonistic Responses of Herbicide Combinations”, Weeds 1967, 15, 20-22). Pa+b=(Pa+Pb)−(Pa*Pb/100) Wherein • Pa+b is the expected percent inhibition of weed growth by the combination of mesotrione and pyridate; • Pa is the percent inhibition of weed growth induced by mesotrione; • Pb is the percent inhibition of weed growth induced by pyridate. If the actual percent inhibition of weed growth induced by the combination of mesotrione and pyridate is greater than the expected percent inhibition (Pa+b) calculated from the Colby equation, then the activity of the combination is synergistic. The below Tables represent the herbicidal performance of the composition according to the invention, and also the herbicidal performance of the active ingredients alone, in controlling specific weeds. The expected percent inhibition of weed growth (derived from the Colby's equation) and the actual (observed) percent inhibition of weed growth is also presented in order to conclude on the synergistic effect of the combination according to the invention. Post-Emergence Herbicidal Performance of the Composition According to the Invention Against Broadleaf Weed in Corn.

[3] = test system: AMAPA - Palmer Pigweed (Amaranthus palmeri); experiment: Field trial, post-emergence weed control in corn, AMAPA; details: mesotrione 3 oz/A, pyridate 6.84 oz/A, combination 3 + 6.84 oz/A
Procedure: as §2

[4] = test system: ELEIN - Goosegrass (Eleusine indica); experiment: Field trial, pre-emergence weed control in corn, ELEIN; details: mesotrione 3.85 oz/A, pyridate 6.84 oz/A, combination 3.85 + 6.84 oz/A
Procedure: as §1

[5] = test system: IPOHE - Ivyleaf Morningglory (Ipomoea headrace); experiment: Field trial, post-emergence weed control in corn, IPOHE
Procedure: as §2

[6] = test system: SETVI - Green foxtail (Setaria viridis); experiment: Field trial, post-emergence weed control in corn, SETVI
Procedure: Field trials were conducted in Tennessee and Illinois (USA). The crop and weed species had been seeded and/or drill sown. In the case of post-emergence evaluation, seeded and/or drill sown plants were grown to a certain growth stage before application of the active ingredients (alone or as a mixture). In the case of pre-emergence evaluation, the application of the active ingredients was carried out after the plants were seeded and/or drilled sown. The trial was in the form of a randomized complete block. The percentage of weed control was assessed in several different instances after treatment until a maximum of 42 days after treatment, by comparison with untreated control plots by visual scoring. The herbicidal action was assessed qualitatively and quantitatively. To quantify the synergic effect resulting from the combination of mesotrione and pyridate, the inventors used the methodology described by Colby, in which a synergistic effect exists when the activity of a composition comprising both active compounds is greater than the sum of the activities of the two active compounds applied individually. The expected activity for the combination of mesotrione and pyridate can be calculated by the following so-called “Colby equation” (see S. R. Colby, “Calculating Synergistic and Antagonistic Responses of Herbicide Combinations”, Weeds 1967, 15, 20-22). Pa+b=(Pa+Pb)−(Pa*Pb/100) Wherein • Pa+b is the expected percent inhibition of weed growth by the combination of mesotrione and pyridate; • Pa is the percent inhibition of weed growth induced by mesotrione; • Pb is the percent inhibition of weed growth induced by pyridate. If the actual percent inhibition of weed growth induced by the combination of mesotrione and pyridate is greater than the expected percent inhibition (Pa+b) calculated from the Colby equation, then the activity of the combination is synergistic. The below Tables represent the herbicidal performance of the composition according to the invention, and also the herbicidal performance of the active ingredients alone, in controlling specific weeds. The expected percent inhibition of weed growth (derived from the Colby's equation) and the actual (observed) percent inhibition of weed growth is also presented in order to conclude on the synergistic effect of the combination according to the invention. […]

[7] = test system: AMAPA - Palmer Pigweed (Amaranthus palmeri); experiment: Field trial, pre-emergence weed control in corn, AMAPA; details: mesotrione 3.85 oz/A, pyridate 6.84 oz/A, combination 3.85 + 6.84 oz/A
Procedure: as §1

[8] = 7 days after treatment, mesotrione 2 oz./A, pyridate 2 oz./A, combination 2 + 2 oz./A
[9] = 7 days after treatment, mesotrione 3 oz./A, pyridate 3 oz./A, combination 3 + 3 oz./A
[10] = 7 days after treatment, mesotrione 3 oz./A, pyridate 6.84 oz./A, combination 3 + 6.84 oz./A
[11] = 14 days after treatment, mesotrione 2 oz./A, pyridate 2 oz./A, combination 2 + 2 oz./A
[12] = 14 days after treatment, mesotrione 3 oz./A, pyridate 3 oz./A, combination 3 + 3 oz./A
[13] = 14 days after treatment, mesotrione 3 oz./A, pyridate 6.84 oz./A, combination 3 + 6.84 oz./A
[14] = 28 days after treatment, mesotrione 2 oz./A, pyridate 2 oz./A, combination 2 + 2 oz./A
[15] = 28 days after treatment, mesotrione 3 oz./A, pyridate 3 oz./A, combination 3 + 3 oz./A
[16] = 28 days after treatment, mesotrione 3 oz./A, pyridate 6.84 oz./A, combination 3 + 6.84 oz./A
[17] = 8 days after treatment, mesotrione 2 oz/A, pyridate 2 oz/A, combination 2 + 2 oz/A
[18] = 8 days after treatment, mesotrione 3 oz/A, pyridate 3 oz/A, combination 3 + 3 oz/A
[19] = 8 days after treatment, mesotrione 3 oz/A, pyridate 6.84 oz/A, combination 3 + 6.84 oz/A
[20] = 16 days after treatment, mesotrione 2 oz/A, pyridate 2 oz/A, combination 2 + 2 oz/A
[21] = 16 days after treatment, mesotrione 3 oz/A, pyridate 3 oz/A, combination 3 + 3 oz/A
[22] = 16 days after treatment, mesotrione 3 oz/A, pyridate 6.84 oz/A, combination 3 + 6.84 oz/A
[23] = 21 days after treatment, mesotrione 2 oz/A, pyridate 2 oz/A, combination 2 + 2 oz/A
[24] = 21 days after treatment, mesotrione 3 oz/A, pyridate 3 oz/A, combination 3 + 3 oz/A
[25] = 21 days after treatment, mesotrione 3 oz/A, pyridate 6.84 oz/A, combination 3 + 6.84 oz/A
[26] = 14 days after treatment, mesotrione 2 oz/A, pyridate 2 oz/A, combination 2 + 2 oz/A
[27] = 14 days after treatment, mesotrione 3 oz/A, pyridate 3 oz/A, combination 3 + 3 oz/A
[28] = 38 days after treatment, mesotrione 2 oz/A, pyridate 2 oz/A, combination 2 + 2 oz/A
[29] = 38 days after treatment, mesotrione 3 oz/A, pyridate 3 oz/A, combination 3 + 3 oz/A

In the case of CCCCCCCCSC(=O)Oc1cc(Cl)nnc1-c1ccccc1 [pyridate, Pyridate], the “Mean percentage of weed control (observed)” value (“Mean percentage” below) ([1]; 7 days after treatment) is reported as 37%, the “Mean percentage” value ([1]; 14 days after treatment) is reported as 42% and the “Mean percentage” value ([1]; 28 days after treatment) is reported as 20%. The “Mean percentage” value ([1]; 42 days after treatment) was 20%, the “Mean percentage” value [2, 8] was 0% and the “Mean percentage” value [2, 9] was 0%. For the same molecule, the “Mean percentage” value [2, 10] was 10%, the “Mean percentage” value [2, 11] was 0% and the “Mean percentage” value [2, 12] was 0%. The “Mean percentage” value [2, 13] was 12%, the “Mean percentage” value [2, 14] was 0% and the “Mean percentage” value [2, 15] was 0%. The “Mean percentage” value [2, 16] was 6%, the “Mean percentage” value ([3]; 8 days after treatment) was 23% and the “Mean percentage” value ([3]; 16 days after treatment) was 33%. The “Mean percentage” value ([3]; 21 days after treatment) was 33%, the “Mean percentage” value ([4]; 7 days after treatment) was 37% and the “Mean percentage” value ([4]; 14 days after treatment) was 37%. The “Mean percentage” value [5, 17] was 28%, the “Mean percentage” value [5, 18] was 40% and the “Mean percentage” value [5, 19] was 10%. For the same molecule, the “Mean percentage” value [5, 20] was 18%, the “Mean percentage” value [5, 21] was 10% and the “Mean percentage” value [5, 22] was 23%. For the same molecule, the “Mean percentage” value [5, 23] was 18%, the “Mean percentage” value [5, 24] was 10% and the “Mean percentage” value [5, 25] was 23%. For the same molecule, the “Mean percentage” value [6, 26] was 10%, the “Mean percentage” value [6, 27] was 10% and the “Mean percentage” value [6, 23] was 10%. The “Mean percentage” value [6, 24] was 10%, the “Mean percentage” value [6, 28] was 10% and the “Mean percentage” value [6, 29] was 10%. The “Mean percentage” value ([7]; 7 days after treatment) was 37%, the “Mean percentage” value ([7]; 14 days after treatment) was 42% and the “Mean percentage” value ([7]; 28 days after treatment) was 20%. For the same molecule, the “Mean percentage” value ([7]; 42 days after treatment) was 20%.
For CS(=O)(=O)c1ccc(C(=O)C2C(=O)CCCC2=O)c([N+](=O)[O-])c1 [mesotrione, Mesotrione], the “Mean percentage” value ([1]; 7 days after treatment) was 62%, the “Mean percentage” value ([1]; 14 days after treatment) was 64% and the “Mean percentage” value ([1]; 28 days after treatment) was 40%. The “Mean percentage” value ([1]; 42 days after treatment) was 34%, the “Mean percentage” value [2, 8] was 73% and the “Mean percentage” value [2, 9] was 73%. For the same molecule, the “Mean percentage” value [2, 10] was 68%, the “Mean percentage” value [2, 11] was 75% and the “Mean percentage” value [2, 12] was 73%. For the same molecule, the “Mean percentage” value [2, 13] was 80%, the “Mean percentage” value [2, 14] was 73% and the “Mean percentage” value [2, 15] was 68%. The “Mean percentage” value [2, 16] was 85%, the “Mean percentage” value ([3]; 8 days after treatment) was 53% and the “Mean percentage” value ([3]; 16 days after treatment) was 55%. The “Mean percentage” value ([3]; 21 days after treatment) was 55%, the “Mean percentage” value ([4]; 7 days after treatment) was 65% and the “Mean percentage” value ([4]; 14 days after treatment) was 78%. For the same molecule, the “Mean percentage” value [5, 17] was 43%, the “Mean percentage” value [5, 18] was 68% and the “Mean percentage” value [5, 19] was 65%. For the same molecule, the “Mean percentage” value [5, 20] was 35%, the “Mean percentage” value [5, 21] was 63% and the “Mean percentage” value [5, 22] was 78%. For the same molecule, the “Mean percentage” value [5, 23] was 38%, the “Mean percentage” value [5, 24] was 60% and the “Mean percentage” value [5, 25] was 75%. The “Mean percentage” value [6, 26] was 48%, the “Mean percentage” value [6, 27] was 58% and the “Mean percentage” value [6, 23] was 50%. The “Mean percentage” value [6, 24] was 60%, the “Mean percentage” value [6, 28] was 50% and the “Mean percentage” value [6, 29] was 60%. The “Mean percentage” value ([7]; 7 days after treatment) was 62%, the “Mean percentage” value ([7]; 14 days after treatment) was 64% and the “Mean percentage” value ([7]; 28 days after treatment) was 40%. For the same molecule, the “Mean percentage” value ([7]; 42 days after treatment) was 34%.
